Test results taken from patent publication US7772270B2, “Imino acid derivatives as inhibitors of matrix metalloproteinases” (sanofi-aventis Deutschland GmbH, priority 2003, dated 2010).

Tests used:
[1] = molecular target: T1, catalytic domain of human neutrophilic collagenase (MMP-8) (Homo sapiens, UniProt P22894); assay: Enzymatic activity of the catalytic domain of human neutrophilic collagenase (MMP-8), fluorogenic substrate; type: biochemical; conditions: 15 min preincubation, pH 7.5, fluorescence 328/393 nm
T1 construct: catalytic domain of human stromelysin (MMP-3) and neutrophilic collagenase (MMP-8); made in house
T1 sequence (P22894 100-262 limits assumed): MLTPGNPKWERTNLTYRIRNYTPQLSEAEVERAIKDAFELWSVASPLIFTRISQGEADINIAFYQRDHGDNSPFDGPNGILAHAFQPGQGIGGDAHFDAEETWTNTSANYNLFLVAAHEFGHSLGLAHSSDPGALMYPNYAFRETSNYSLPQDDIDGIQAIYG
Procedure: (§1) The two enzymes, i.e., stromelysin (MMP-3) and neutrophilic collagenase (MMP-8), were prepared as described in Ye et al. (Biochemistry; 31 (1992) pages 11231-11235). For measuring enzymatic activity or the effect of an enzyme inhibitor, 70 μl of buffer solution and 10 μl of enzyme solution are incubated, for 15 minutes and at a physiological pH, with 10 μl of a 10% (v/v) aqueous solution of dimethyl sulfoxide containing the enzyme inhibitor, where appropriate. After 10 μl of a 10% (v/v) aqueous solution of dimethyl sulfoxide containing 1 mmol of the substrate/l have been added, the enzyme reaction is monitored by fluorescence spectroscopy (328 nm (ex)/393 nm(em)).
(§2) The enzyme activity is recorded as increase in […]/minute. The IC50 values listed in table 2 are determined as the inhibitor concentrations that in each case lead to 50% inhibition of the enzyme.
(§3) The buffer solution contains 0.05% Brij (Sigma, Deisenhofen, Germany) and also 0.1 mol of Tris/HCl/l, 0.1 mol of NaCl/l, 0.01 mol of CaCl2/l and 0.1 mol of piperazine-N,N′-bis[2-ethanesulfonic acid]/l (pH=7.5). The enzyme solution contains 5 μg/ml of one of the enzyme domains prepared as described in Ye et al. The substrate solution contains 1 mmol of the fluorogenic substrate (7-methoxycoumarin-4-yl)acetyl-Pro-Leu-Gly-Leu-3-(2′,4′-dinitrophenyl)-L-2,3-diaminopropionyl-Ala-Arg-NH2/A (Bachem, Heidelberg, Germany).

[2] = molecular target: T2, catalytic domain of human stromelysin (MMP-3) (Homo sapiens, UniProt P08254); assay: Enzymatic activity of the catalytic domain of human stromelysin (MMP-3), fluorogenic substrate; type: biochemical; conditions: 15 min preincubation, pH 7.5, fluorescence 328/393 nm
T2 construct: enzymatic activity of the catalytic domain of human stromelysin (MMP-3); made in house
T2 sequence (P08254 100-272 limits assumed): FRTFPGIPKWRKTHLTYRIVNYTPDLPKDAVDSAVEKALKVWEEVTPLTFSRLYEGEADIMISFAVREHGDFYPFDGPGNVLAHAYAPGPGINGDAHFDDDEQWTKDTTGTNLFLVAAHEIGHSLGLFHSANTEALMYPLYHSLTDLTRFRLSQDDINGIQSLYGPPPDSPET
Procedure: as §1, §2, §3

| IC50 [1] | IC50 [2] | SMILES |
| --- | --- | --- |
| 4 nM | 160 nM | O=C(O)[C@H]1C[C@H]2CCC[C@H]2N1S(=O)(=O)c1ccc(-c2ccc(N3CCCC3)cc2)cc1 [Example 21] |
| 200 nM | 200 nM | O=C(O)C1C[C@H]2CCC[C@H]2N1S(=O)(=O)CCc1ccc(-c2ccc(Br)cc2)cc1 (stereo partly shown) [Example 13] |
| 10000 nM | > 10000 nM | O=C(O)[C@H]1C[C@H]2CCC[C@H]2N1S(=O)(=O)c1ccc(-c2ccc(N3CCN(c4ccc(F)cc4)CC3)cc2)cc1 [Example 29] |
| 20 nM | 100 nM | O=C(NO)[C@H]1C[C@H]2CCC[C@H]2N1S(=O)(=O)c1ccc(-c2ccccc2)cc1 [Example 64] |
| 3 nM | 22 nM | O=C(NO)[C@H]1C[C@H]2CCC[C@H]2N1S(=O)(=O)c1ccc(-c2ccc([N+](=O)[O-])cc2)cc1 [Example 61] |
| 320 nM | 330 nM | O=C(NO)[C@H]1C[C@H]2CCC[C@H]2N1S(=O)(=O)/C=C/c1ccccc1 [Example 57] |
| 100 nM | 300 nM | O=C(NO)C1C[C@H]2CCC[C@H]2N1S(=O)(=O)c1ccc(I)cc1 (single isomer, unassigned) [Example 65] |
| 3700 nM | 200 nM | O=C(NO)C1C[C@H]2CCC[C@H]2N1S(=O)(=O)c1ccc(-c2ccc(N3CCN(c4ccc(F)cc4)CC3)cc2)cc1 (single isomer, unassigned) [Example 63] |
